From ChEMBL document CHEMBL1201862, “PubChem BioAssay data set” (2004)
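48-hour exposure; five concentrations; linearly interpolated endpoints. Abbreviation: GI50, concentration required for 50% inhibition of growth.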 Active and inactive are the calls of the source. Rule as the data show it: active = GI50 up to about 1.1 µM and inactive = higher.

Experiments:
Assay in all cases: NCI anticancer screen, dose series, 48 h
UACC-62 = test system: UACC-62
OVCAR-3 = test system: OVCAR-3
SK-MEL-28 = test system: SK-MEL-28
K562 = test system: K562
CAKI-1 = test system: CAKI-1
SF-539 = test system: SF-539
OVCAR-8 = test system: OVCAR-8
TK-10 = test system: TK-10
CCRF-CEM = test system: CCRF-CEM
ACHN = test system: ACHN
MOLT-4 = test system: MOLT-4
UO-31 = test system: UO-31
SF-268 = test system: SF-268
SK-OV-3 = test system: SK-OV-3
OVCAR-5 = test system: OVCAR-5
M14 = test system: M14

Measured: GI50

CC(C)(C)N/N=C(\C(=O)Nc1nnc(S)[nH]1)C1C(=O)Nc2ccccc2[S+]1[O-] (stereo not given)
inactive: UACC-62 > 100 µM | OVCAR-3 > 100 µM | SK-MEL-28 > 100 µM | K562 > 100 µM | CAKI-1 > 100 µM | SF-539 > 100 µM | OVCAR-8 > 100 µM | TK-10 > 100 µM | CCRF-CEM > 100 µM | ACHN > 100 µM | MOLT-4 > 100 µM | UO-31 > 100 µM | SF-268 > 100 µM | SK-OV-3 > 100 µM | OVCAR-5 > 100 µM | M14 > 100 µM

O=C(CCc1nnc(S)[nH]1)Nc1cc(Cl)ccc1Cl
inactive: UACC-62 > 100 µM | OVCAR-3 > 100 µM | SK-MEL-28 > 100 µM | K562 > 100 µM | CAKI-1 > 100 µM | SF-539 > 100 µM | OVCAR-8 > 100 µM | TK-10 > 100 µM | CCRF-CEM > 100 µM | ACHN > 100 µM | MOLT-4 > 100 µM | UO-31 > 100 µM | SF-268 > 100 µM | SK-OV-3 > 100 µM | OVCAR-5 > 100 µM | M14 > 100 µM

COC(=O)C(C(=O)C(=O)Nc1ccc(N)cc1[N+](=O)[O-])c1nc2ccc(Cl)cc2nc1O (stereo not given)
inactive: UACC-62 > 100 µM | OVCAR-3 74.8 µM | SK-MEL-28 > 100 µM | K562 > 100 µM | CAKI-1 > 100 µM | SF-539 > 100 µM | OVCAR-8 > 100 µM | TK-10 > 100 µM | CCRF-CEM 92.5 µM | ACHN > 100 µM | MOLT-4 > 100 µM | UO-31 41 µM | SF-268 72.9 µM | SK-OV-3 > 100 µM | OVCAR-5 > 100 µM | M14 > 100 µM

COc1ccc(C2C(Cl)C(=O)N2NC(=O)c2ccc(NC(C)=O)cc2)cc1 (stereo not given)
inactive: UACC-62 > 100 µM | OVCAR-3 > 100 µM | SK-MEL-28 > 100 µM | K562 > 100 µM | CAKI-1 > 100 µM | SF-539 > 100 µM | OVCAR-8 > 100 µM | TK-10 > 100 µM | CCRF-CEM > 100 µM | ACHN > 100 µM | MOLT-4 > 100 µM | UO-31 > 100 µM | SF-268 > 100 µM | SK-OV-3 > 100 µM | OVCAR-5 > 100 µM | M14 > 100 µM

ClCCNCCNCCCl.ClCCNCCNCCCl.[O-][Cl+3]([O-])([O-])O
inactive: UACC-62 26.9 µM | OVCAR-3 17.6 µM | SK-MEL-28 46.2 µM | K562 23.6 µM | CAKI-1 19.1 µM | SF-539 26.2 µM | OVCAR-8 18.9 µM | TK-10 49.9 µM | CCRF-CEM 29.5 µM | ACHN 21.9 µM | MOLT-4 31.4 µM | UO-31 26.8 µM | SF-268 25.5 µM | SK-OV-3 > 100 µM | OVCAR-5 24.9 µM | M14 19.5 µM
